According to patent publication US9914969B2, “Fads regulation” (CORNELL UNIVERSITY, priority 2012, dated 2018):
Entries after “also recorded” stand apart in the source; their conditions may differ.

What was measured:
FADS1 expression = FADS1 expression in lymphoblasts after drug treatment (qRT-PCR); type: cell-based, human; settings: 24 hours; for FADS1 response to drug, D/D vs I/I haplotype homozygotes (in words): lymphoblasts, 1 μNI GW3965, 20 μM rosiglitazone
Procedure: Immortalized B-lymphocyte (lymphoblast) cell lines from Japanese HapMap participants were obtained from the Coriell Institute for Medical Research, and used within 10 passages of receipt from the repository. Cells were grown in RPMI 1640 with 2 mM L-alanyl-glutamine (Sigma) and 15% fetal bovine serum (media and serum obtained from HyClone) in a humidified environment at 37° C. with 5% CO2. All experiments were conducted on cells grown and treated in parallel in identical media and growth conditions. […] RNA was extracted using the RNeasy kit (Qiagen), and RNA quality was checked by agarose gel electrophoresis to verify RNA integrity and by 260/280 nm ratios on a NanoDrop 2000 (Thermo Scientific). cDNA was prepared using the High Capacity cDNA Reverse Transcription Kit (Applied Biosystems) according to the manufacturer's protocol.
(§1) Quantitative real-time PCR was carried out using SYBR Green Master Mix (Roche) on a LightCycler 480 instrument (Roche). PCR primers were obtained from Integrated DNA Technologies (sequences available upon request), except for 18S, which was obtained from Qiagen as a QuantiTect Primer Assay. PCR reaction efficiency was calculated from standard curves, and reactions were assessed by both melting curves and by running on agarose gels to verify reaction products and the absence of primer-dimers. Quantitative cycle (Cq) values were determined using LightCycler 480 SW1.5.0SP3 software, version 1.5.0.39 (Roche). […] Statistical significance of differences in fold changes between genotypes in response to cell treatments (normalized to vehicle treatment for each genotype) was assessed by the Mann-Whitney U test. Bootstrapping and randomization techniques were used in REST 2009 software (Qiagen) to calculate significance of fold changes normalizing both genotypes to basal expression in I/I allele homozygotes.
Follow-up experiments were carried out in Japanese HapMap lymphoblast cell lines homozygous for the D/D haplotype associated with FADS1 expression, or homozygous for the I/I haplotype. All available D/D haplotype homozygote cell lines were used (n=5), as well as randomly chosen I/I allele homozygote cell lines (n=11).
To investigate the possibility of a causal genetic variation in a transcription factor binding site, cells were treated with drugs acting directly or indirectly on PPARγ or SREBP-1c.

FADS2 expression = FADS2 expression in lymphoblasts after drug treatment (qRT-PCR); type: cell-based, human; settings: 24 hours
Procedure: Immortalized B-lymphocyte (lymphoblast) cell lines from Japanese HapMap participants were obtained from the Coriell Institute for Medical Research, and used within 10 passages of receipt from the repository. Cells were grown in RPMI 1640 with 2 mM L-alanyl-glutamine (Sigma) and 15% fetal bovine serum (media and serum obtained from HyClone) in a humidified environment at 37° C. with 5% CO2. All experiments were conducted on cells grown and treated in parallel in identical media and growth conditions. […]
as §1, with “Bootstrapping and randomization techniques were used in REST 2009 software (Qiagen) to calculate significance of fold changes normalizing both genotypes to basal expression in I/I allele homozygotes.” left out

[1] = 5 μNI simvastatin, normalized to vehicle

SMILES	upregulation (induction) of FADS1 higher for the D/D haplotype than for I/I (FADS1 expression; D/D vs I/I haplotype homozygote lymphoblasts, 5 μNI simvastatin, 1 μNI GW3965) [%]	final FADS1 expression after treatment, difference between genotypes (in words) (FADS1 expression; D/D vs I/I lymphoblasts, normalized to basal I/I expression)	upregulation of FADS1 (FADS1 expression; I/I haplotype homozygote lymphoblasts, 5 μNI simvastatin, 1 μNI GW3965, normalized to vehicle)	FADS1 response to drug, D/D vs I/I haplotype homozygotes (in words) (FADS1 expression; [1])	FADS2 expression increase in D/D haplotype homozygotes compared with I/I (in words) (FADS2 expression; lymphoblasts, normalized to vehicle)	FADS2 response to treatment (in words) (FADS2 expression; I/I and D/D lymphoblasts, 20 μM rosiglitazone)
O=C(O)Cc1cccc(OCCCN(Cc2cccc(C(F)(F)F)c2Cl)CC(c2ccccc2)c2ccccc2)c1 [GW3965]	25	did not significantly differ; also recorded: no longer significantly different	about two	significantly greater fold increase	even more	
CN(CCOc1ccc(CC2SC(=O)NC2=O)cc1)c1ccccn1 (stereo not shown) [rosiglitazone]				no response		no response
